pIC50: −log10 of the molar value.
Experiments:
[1] = biological target: T1, Sterol O-acyltransferase 1 (Homo sapiens, UniProt P35610); assay: Inhibitory activity against acyl-CoA:cholesterol acyltransferase (ACAT); no inhibition >1000
T1 sequence (P35610 whole entry): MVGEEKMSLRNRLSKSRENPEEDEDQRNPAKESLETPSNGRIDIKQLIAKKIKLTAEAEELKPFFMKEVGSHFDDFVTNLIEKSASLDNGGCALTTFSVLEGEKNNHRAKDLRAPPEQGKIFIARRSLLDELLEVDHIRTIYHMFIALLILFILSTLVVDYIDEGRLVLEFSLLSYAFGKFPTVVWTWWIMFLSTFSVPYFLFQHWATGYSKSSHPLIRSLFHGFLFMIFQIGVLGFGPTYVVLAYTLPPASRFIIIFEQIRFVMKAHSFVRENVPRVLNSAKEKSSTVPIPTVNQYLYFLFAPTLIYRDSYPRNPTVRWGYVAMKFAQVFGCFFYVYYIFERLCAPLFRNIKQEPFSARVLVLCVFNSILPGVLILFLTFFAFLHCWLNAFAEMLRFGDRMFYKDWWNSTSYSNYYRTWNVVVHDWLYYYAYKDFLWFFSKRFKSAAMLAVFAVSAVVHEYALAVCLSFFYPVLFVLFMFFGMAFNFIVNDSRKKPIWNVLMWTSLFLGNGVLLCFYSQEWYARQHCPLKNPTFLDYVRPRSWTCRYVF

Acetylcholinesterase [2] = biological target: T2, Acetylcholinesterase (Homo sapiens, UniProt P22303); assay: Inhibitory activity against Acetylcholinesterase
T2 sequence (P22303 whole entry): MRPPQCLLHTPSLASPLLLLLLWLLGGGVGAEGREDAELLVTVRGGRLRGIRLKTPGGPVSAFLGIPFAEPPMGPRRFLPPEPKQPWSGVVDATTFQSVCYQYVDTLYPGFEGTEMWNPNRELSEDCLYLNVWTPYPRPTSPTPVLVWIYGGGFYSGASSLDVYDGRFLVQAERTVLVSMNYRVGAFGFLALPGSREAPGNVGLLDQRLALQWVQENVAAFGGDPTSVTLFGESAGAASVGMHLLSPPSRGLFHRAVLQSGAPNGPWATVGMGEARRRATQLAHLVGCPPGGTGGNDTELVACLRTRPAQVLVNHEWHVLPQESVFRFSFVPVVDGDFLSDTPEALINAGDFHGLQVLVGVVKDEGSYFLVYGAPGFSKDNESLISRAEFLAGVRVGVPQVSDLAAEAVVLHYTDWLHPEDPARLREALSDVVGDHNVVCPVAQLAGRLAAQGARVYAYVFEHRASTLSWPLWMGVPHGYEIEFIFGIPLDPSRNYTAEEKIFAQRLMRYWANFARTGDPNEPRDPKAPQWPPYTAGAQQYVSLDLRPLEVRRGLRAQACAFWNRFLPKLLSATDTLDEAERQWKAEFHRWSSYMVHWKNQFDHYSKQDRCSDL

Acetylcholinesterase [3] = biological target: T2, Acetylcholinesterase; assay: Inhibitory activity against Acetylcholinesterase; no inhibition at 100 uM
[4] = biological target: T1, Sterol O-acyltransferase 1; assay: Inhibitory activity against acyl-CoA:cholesterol acyltransferase (ACAT)

| Compound | pIC50 (Acetylcholinesterase [2]) | further results |
| --- | --- | --- |
| COc1ccc(-c2cc3c(c(=O)o2)C(=O)C2[C@@]4(C)CC[C@H](O)[C@@](C)(CO)C4C[C@H](O)[C@@]2(C)O3)cc1 (stereo partly specified) | 4.15 | IC50 [1]: Not Active |
| COc1cccc(-c2cc3c(c(=O)o2)C(=O)C2[C@@]4(C)CC[C@H](O)[C@@](C)(CO)C4C[C@H](O)[C@@]2(C)O3)c1 (stereo partly specified) | < 4.03 |  |
| C[C@]12CC[C@H](O)[C@@](C)(CO)C1C[C@H](O)[C@@]1(C)Oc3cc(-c4ccncc4)oc(=O)c3C(=O)C21 (stereo partly specified) | 5.10 | IC50 [1]: No inhibition |
| COc1ccc(-c2cc3c(c(=O)o2)C(=O)C2[C@@]4(C)CC[C@H](O)[C@@](C)(CO)C4C[C@H](O)[C@@]2(C)O3)cc1OC (stereo partly specified) | 4.24 |  |
| C[C@]12CC[C@H](O)[C@@](C)(CO)C1C[C@H](O)[C@@]1(C)Oc3cc(-c4ccc(Cl)nc4)oc(=O)c3C(=O)C21 (stereo partly specified) | 4.10 |  |
| C[C@]12CC[C@H](O)[C@@](C)(CO)C1C[C@H](O)[C@@]1(C)Oc3cc(-c4ccccn4)oc(=O)c3C(=O)C21 (stereo partly specified) | 4.00 |  |
| CC(=O)OC[C@@]1(C)C2C[C@H](OC(C)=O)[C@@]3(C)Oc4cc(-c5cccnc5)oc(=O)c4[C@H](O)C3[C@@]2(C)CC[C@@H]1OC(C)=O (stereo partly specified) |  | IC50 (Acetylcholinesterase [3]): No inhibition |
| C[C@]12CC[C@H](O)[C@@](C)(CO)C1C[C@H](O)[C@@]1(C)Oc3cc(-c4cccnc4)oc(=O)c3C(=O)C21 (stereo partly specified) | 4.46 |  |
| C[C@]12CC[C@H](O)[C@@](C)(CO)C1C[C@H](O)[C@@]1(C)Oc3cc(-c4ccccc4)oc(=O)c3C(=O)C21 (stereo partly specified) | 4.00 |  |
| COc1ccc(-c2cc3c(c(=O)o2)C[C@]2(O)[C@@]4(C)C(=O)C=CC(C)(C)[C@]4(O)CC[C@@]2(C)O3)cc1 | 7.59 |  |
| COc1ccc(-c2cc3c(c(=O)o2)C[C@]2(O)[C@@]4(C)C(=O)C=CC(C)(C)[C@]4(O)CC[C@@]2(C)O3)cc1OC | 9.00 | pIC50 [4]: < 4.30 |
| COc1cc(-c2cc3c(c(=O)o2)C[C@]2(O)[C@@]4(C)C(=O)C=CC(C)(C)[C@]4(O)CC[C@@]2(C)O3)cc(OC)c1OC [TERRITREM B] | 8.10 | pIC50 [4]: < 4.30 |

From ChEMBL document CHEMBL1133041, “Synthetic conversion of ACAT inhibitor to acetylcholinesterase inhibitor” (Bioorg Med Chem Lett, 2000)
